Data: US8063065B2, “Azaindazole compounds as CCR1 receptor antagonists” (Boehringer Ingelheim International GmbH, priority 2008, dated 2011)

target: T1, CCR1 (Homo sapiens, UniProt P32246); experiment: Method B: calcium flux in CCR1 transfected cells (Calcium 4 dye, […] FDSS6000), block of the CCR1/MIP-1α interaction; format: cell-based; conditions: Method B: Calcium 4 dye, MIP-1alpha at EC80
T1 sequence (P32246 1-355): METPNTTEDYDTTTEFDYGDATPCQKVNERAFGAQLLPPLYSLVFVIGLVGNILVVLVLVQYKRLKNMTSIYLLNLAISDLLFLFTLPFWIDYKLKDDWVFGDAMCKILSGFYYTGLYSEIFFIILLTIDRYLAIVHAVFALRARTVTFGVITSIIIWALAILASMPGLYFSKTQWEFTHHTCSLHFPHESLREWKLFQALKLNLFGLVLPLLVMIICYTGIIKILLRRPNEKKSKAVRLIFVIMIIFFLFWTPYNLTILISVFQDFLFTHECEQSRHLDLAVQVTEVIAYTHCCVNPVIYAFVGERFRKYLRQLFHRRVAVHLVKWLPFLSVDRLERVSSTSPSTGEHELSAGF
Procedure: Compounds are assessed for the ability to block the interaction of CCR1 and MIP-1α in a functional cellular assay measuring calcium flux in CCR1 transfected cells.
Method B: Non-adherent cells purchased from Chemicon Corporation (HTS005C), stably expressing recombinant CCR1 and G-alpha-16 are grown in RPMI 1640 medium (Mediatech 10-080-CM) supplemented with 10% FBS, 0.4 mg/mL Geneticin and penicillin/streptomycin. On the day of the assay, the cells are loaded with Calcium 4 dye (Molecular Devices R7448) with Probenecid (Invitrogen P346400) at 8E5 cells/mL for 1 hour at room temperature. After 1 hour, they are seeded in a 384-well tissue culture-treated plate at a density of 20,000 cells/well. Appropriately diluted test compound is added to the well to achieve a top concentration of 3,000 nM (diluted 4-fold with 10 doses total). The final concentration of DMSO is 1%. The buffer is HBSS (Invitrogen 14025) with 20 mM HEPES at pH 7.4. The cells incubate 30 minutes at 37 C and then 30 minutes at room temperature. The plates are transferred to the […] FDSS6000 where MIP-1alpha in 1% BSA is added at the EC80 final concentration. All plates must be read within 4 hours of the start of dye-loading. Wells+/−MIP-1alpha containing diluted DMSO instead of compound serve as the controls. Data are analyzed using Activity Base software.

IC50 [nM] | Compound
12 | CC[C@H](NC(=O)c1cncc2c1cnn2-c1ccc(F)cc1)[C@@H]1CCN(S(C)(=O)=O)[C@H](C(N)=O)C1 [1-(4-Fluorophenyl)-1H-pyrazolo[3,4-c]pyridine-4-carboxylic acid [(S)-1-((2S,4R)-2-carbamoyl-1-methanesulfonyl-piperidin-4-yl)-propyl]-amide]
0.6 | CC[C@H](NC(=O)c1cncc2c1cnn2-c1ccc(F)cc1)c1cnc(S(C)(=O)=O)s1 [1-(4-Fluorophenyl)-1H-pyrazolo[3,4-c]pyridine-4-carboxylic acid [(S)-1-(2-methanesulfonyl-thiazol-5-yl)-propyl]-amide]
16 | CCC(NC(=O)c1cncc2c1cnn2-c1ccc(F)cc1)C1CCN(C(N)=O)CC1 (stereo not drawn) [1-(4-Fluorophenyl)-1H-pyrazolo[3,4-c]pyridine-4-carboxylic acid [1-(1-carbamoyl-piperidin-4-yl)-propyl]-amide]
11 | CCOC(=O)Cn1ccc([C@H](CC)NC(=O)c2cncc3c2cnn3-c2ccc(F)cc2)n1 [[3-((S)-1-{[1-(4-Fluorophenyl)-1H-pyrazolo[3,4-c]pyridine-4-carbonyl]-amino}-propyl)-pyrazol-1-yl]-acetic acid ethyl ester]
0.4 | CC[C@H](NC(=O)c1cncc2c1cnn2-c1ccc(F)cc1)c1ccc(S(C)(=O)=O)o1 [1-(4-Fluorophenyl)-1H-pyrazolo[3,4-c]pyridine-4-carboxylic acid [(S)-1-(5-methanesulfonyl-furan-2-yl)-propyl]-amide]
10 | CCC(NC(=O)c1cncc2c1cnn2-c1ccc(F)cc1)C1CCN(C(C)=O)CC1 (stereo not drawn) [1-(4-Fluorophenyl)-1H-pyrazolo[3,4-c]pyridine-4-carboxylic acid [1-(1-acetyl-piperidin-4-yl)-propyl]-amide]
6 | CC[C@H](NC(=O)c1cncc2c1cnn2-c1ccc(F)cc1)c1ccncc1 [1-(4-Fluorophenyl)-1H-pyrazolo[3,4-c]pyridine-4-carboxylic acid ((S)-1-pyridin-4-yl-propyl)-amide]

The remaining lines, values behind:

Compound | IC50 [nM]
CC[C@H](NC(=O)c1cncc2c1cnn2-c1ccc(F)cc1)c1cccc(S(C)(=O)=O)n1 [1-(4-Fluorophenyl)-1H-pyrazolo[3,4-c]pyridine-4-carboxylic acid [(S)-1-(6-methanesulfonyl-pyridin-2-yl)-propyl]-amide] | 0.2
CC[C@H](NC(=O)c1cncc2c1cnn2-c1ccc(F)cc1)c1ccnc(S(=O)(=O)CCC(=O)OC)c1 [3-[4-((S)-1-{[1-(4-Fluorophenyl)-1H-pyrazolo[3,4-c]pyridine-4-carbonyl]-amino}-propyl)-pyridine-2-sulfonyl]-propionic acid methyl ester] | 1
CCC(NC(=O)c1cncc2c1cnn2-c1ccc(F)cc1)c1nc(C(=O)NCC#N)c(C)o1 (stereo not drawn) [1-(4-Fluorophenyl)-1H-pyrazolo[3,4-c]pyridine-4-carboxylic acid {1-[4-(cyanomethyl-carbamoyl)-5-methyl-oxazol-2-yl]-propyl}-amide] | 18
CC(C)(O)CNS(=O)(=O)c1ccc(CNC(=O)c2cncc3c2cnn3-c2ccc(F)cc2)cc1 [1-(4-Fluorophenyl)-1H-pyrazolo[3,4-c]pyridine-4-carboxylic acid 4-(2-hydroxy-2-methyl-propylsulfamoyl)-benzylamide] | 1
C[C@H](NC(=O)c1cncc2c1cnn2-c1ccc(F)cc1)c1cccc(Cl)c1 [1-(4-Fluorophenyl)-1H-pyrazolo[3,4-c]pyridine-4-carboxylic acid [(S)-1-(3-chlorophenyl)-ethyl]-amide] | 5
CC[C@H](NC(=O)c1cncc2c1cnn2-c1ccc(F)cc1)c1cc(S(C)(=O)=O)cs1 [1-(4-Fluorophenyl)-1H-pyrazolo[3,4-c]pyridine-4-carboxylic acid [(S)-1-(4-methanesulfonyl-thiophen-2-yl)-propyl]-amide] | 0.1
CC[C@H](NC(=O)c1cncc2c1cnn2-c1ccc(F)cc1)c1cc(N(C)CC(N)=O)nc(S(C)(=O)=O)c1 [1-(4-Fluorophenyl)-1H-pyrazolo[3,4-c]pyridine-4-carboxylic acid {(S)-1-[2-(carbamoylmethyl-methyl-amino)-6-methanesulfonyl-pyridin-4-yl]-propyl}-amide] | 0.3
CCC(CC)(NC(=O)c1cncc2c1cnn2-c1ccc(F)cc1)c1cnc(S(C)(=O)=O)s1 [1-(4-Fluorophenyl)-1H-pyrazolo[3,4-c]pyridine-4-carboxylic acid [1-ethyl-1-(2-methanesulfonyl-thiazol-5-yl)-propyl]-amide] | 28
CC[C@H](NC(=O)c1cncc2c1cnn2-c1ccc(F)cc1)c1ccc(S(C)(=O)=O)c(OC)c1 [1-(4-Fluorophenyl)-1H-pyrazolo[3,4-c]pyridine-4-carboxylic acid [(S)-1-(4-methanesulfonyl-3-methoxy-phenyl)-propyl]-amide] | 0.2
CC[C@H](NC(=O)c1cncc2c1cnn2-c1ccc(F)cc1)c1ccnc(N(C)CCO)c1 [1-(4-Fluorophenyl)-1H-pyrazolo[3,4-c]pyridine-4-carboxylic acid ((S)-1-{2-[(2-hydroxy-ethyl)-methyl-amino]-pyridin-4-yl}-propyl)-amide] | 2
CCS(=O)(=O)c1cc([C@H](C)NC(=O)c2cncc3c2cnn3-c2ccc(F)cc2)ccn1 [1-(4-Fluorophenyl)-1H-pyrazolo[3,4-c]pyridine-4-carboxylic acid [(S)-1-(2-ethanesulfonyl-pyridin-4-yl)-ethyl]-amide] | 2
CC[C@H](NC(=O)c1cncc2c1cnn2-c1ccc(F)cc1)c1ccnc(N2CCC(F)(F)CC2)c1 [1-(4-Fluorophenyl)-1H-pyrazolo[3,4-c]pyridine-4-carboxylic acid [(S)-1-(4,4-difluoro-3,4,5,6-tetrahydro-2H-[1,2′]bipyridinyl-4′-yl)-propyl]-amide] | 3
CC[C@H](NC(=O)c1cncc2c1cnn2-c1ccc(F)cc1)c1ccnc(-c2nnn[nH]2)c1 [1-(4-Fluorophenyl)-1H-pyrazolo[3,4-c]pyridine-4-carboxylic acid {(S)-1-[2-(1H-tetrazol-5-yl)-pyridin-4-yl]-propyl}-amide] | 3
CC[C@H](NC(=O)c1cncc2c1cnn2-c1ccc(F)cc1)c1cccc(S(=O)(=O)CCC(=O)OC)n1 [3-[6-((S)-1-{[1-(4-Fluorophenyl)-1H-pyrazolo[3,4-c]pyridine-4-carbonyl]-amino}-propyl)-pyridine-2-sulfonyl]-propionic acid methyl ester] | 3
CCS(=O)(=O)c1cccc([C@H](C)NC(=O)c2cncc3c2cnn3-c2ccc(F)cc2)n1 [1-(4-Fluorophenyl)-1H-pyrazolo[3,4-c]pyridine-4-carboxylic acid [(S)-1-(6-ethanesulfonyl-pyridin-2-yl)-ethyl]-amide] | 14
CC[C@@H](NC(=O)c1cncc2c1cnn2-c1ccc(F)cc1)c1ccc(OC)c(Br)c1 [1-(4-Fluorophenyl)-1H-pyrazolo[3,4-c]pyridine-4-carboxylic acid [(R)-1-(3-bromo-4-methoxy-phenyl)-propyl]-amide] | 0.2
COc1cc(CNC(=O)c2cncc3c2cnn3-c2ccc(F)cc2)cc(S(C)(=O)=O)n1 [1-(4-Fluorophenyl)-1H-pyrazolo[3,4-c]pyridine-4-carboxylic acid (2-methanesulfonyl-6-methoxy-pyridin-4-ylmethyl)-amide] | 1
